From patent publication US20240254118A1, “PRMT5 INHIBITORS AND USES THEREOF” (Gilead Sciences, Inc., priority 2022, published 2024)

How the values were obtained:
[1] = system: HCT116 MTAP-deleted cells; test: Cell viability assay (CellTiter-Glo, 7 days), HCT116 MTAP-deleted; conditions: Homo sapiens, HCT-116, 168 h
[2] = system: SDMA signal (PRMT5 inhibition) in HCT116 MTAP-deleted cells; test: Symmetric di-methyl arginine image-based high content screen assay (SDMA assay), HCT116 MTAP-deleted; type: cell-based; conditions: SDMA assay; for EC50: Homo sapiens, HCT-116, 72 h, 3 days of treatment, cell line not given, taken as HCT116 MTAP-deleted, read-out: EC50 (SDMA assay); for EC50 selectivity (SDMA assay): taken as HCT116 WT versus MTAP-deleted
Method in brief: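 HCT116 MTAP-deleted cells treated with compound until Day 3, then formalin-fixed, permeabilized and immunostained for SDMA, with DAPI nuclear counterstain. Imaged by high-content microscopy; SDMA read-out is mean Alexa 488 intensity per DAPI-defined cell, reflecting PRMT5 inhibition.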

| SMILES | CC50 [1] | EC50 [2] | EC50 selectivity (SDMA assay) [2] |
| --- | --- | --- | --- |
| CN(C(=O)C1CC1)N(Cc1ccc(Cl)cn1)C(=O)c1ccc2nc(N)c3cnn(C)c3c2c1 [Example 221, 4-amino-N-((5-chloropyridin-2-yl)methyl)-N′-(cyclopropanecarbonyl)-N′,1-dimethyl-1H-pyrazolo[4,3-c]quinoline-8-carbohydrazide] | < 100 nM | 1 to 5 nM | 218 |
| Cn1ncc2c(N)nc3ccc(C(=O)N(Cc4ccc(C(F)(F)F)cn4)N4CCCCC4)cc3c21 [Example 28, 4-amino-1-methyl-N-(1-piperidyl)-N-[[5-(trifluoromethyl)-2-pyridyl]methyl]pyrazolo[4,3-c]quinoline-8-carboxamide] | < 100 nM | < 1 nM | 134 |
| Cn1ncc2c(N)nc3ccc(C(=O)N(NC(=O)C4CC4)C4COc5cc(C(F)(F)F)ccc54)cc3c21 (stereo not drawn) [Example 349, 4-amino-N′-(cyclopropanecarbonyl)-1-methyl-N-(6-(trifluoromethyl)-2,3-dihydrobenzofuran-3-yl)-1H-pyrazolo[4,3-c]quinoline-8-carbohydrazide] | < 100 nM | < 1 nM | 13 |
| CCN(C(=O)C1CC1)N(Cc1ccc(C(F)(F)F)cn1)C(=O)c1cc2c(cc1F)nc(N)c1cnn(C)c12 [Example 286, 4-amino-N′-(cyclopropanecarbonyl)-N′-ethyl-7-fluoro-1-methyl-N-((5-(trifluoromethyl)pyridin-2-yl)methyl)-1H-pyrazolo[4,3-c]quinoline-8-carbohydrazide] | < 100 nM | < 1 nM | 16 |
| CN(C(=O)C1CC1)N(Cc1ccc(C(F)(F)F)nc1)C(=O)c1ccc2nc(N)c3cnn(C)c3c2c1 [Example 393, 4-amino-N′-(cyclopropanecarbonyl)-N′,1-dimethyl-N-[[6-(trifluoromethyl)-3-pyridyl]methyl]pyrazolo[4,3-c]quinoline-8-carbohydrazide] | < 100 nM | 1 to 5 nM | 380 |
| CC(=O)N(C)N(Cc1ccc(C(F)(F)F)cn1)C(=O)c1ccc2nc(N)c3c(cnn3C)c2c1 [Example 152, N′-acetyl-4-amino-N′,3-dimethyl-N-((5-(trifluoromethyl)pyridin-2-yl)methyl)-3H-pyrazolo[3,4-c]quinoline-8-carbohydrazide] | 100 to 1000 nM | 1 to 5 nM | 128 |
| CCC(=O)N(C)N(Cc1cn2cc(F)ccc2n1)C(=O)c1ccc2nc(N)c3cnn(C)c3c2c1 [Example 91, 4-Amino-N-[(6-fluoroimidazo[1,2-a]pyridin-2-yl)methyl]-N′,1-dimethyl-N′-propanoyl-pyrazolo[4,3-c]quinoline-8-carbohydrazide] | < 100 nM | 1 to 5 nM | 143 |
| CN(C(=O)C1CC1)N(Cc1cc(F)c(F)cc1F)C(=O)c1ccc2nc(N)c3cnn(C)c3c2c1 [Example 272, 4-amino-N′-(cyclopropanecarbonyl)-N′,1-dimethyl-N-(2,4,5-trifluorobenzyl)-1H-pyrazolo[4,3-c]quinoline-8-carbohydrazide] | < 100 nM | < 1 nM | 466 |
| CC(=O)N(C)N(Cc1ccc(C2CC2)nc1)C(=O)c1ccc2nc(N)c3cnn(C)c3c2c1 [Example 232, N′-acetyl-4-amino-N-((6-cyclopropylpyridin-3-yl)methyl)-N′,1-dimethyl-1H-pyrazolo[4,3-c]quinoline-8-carbohydrazide] | < 100 nM | 1 to 5 nM | 298 |
| CC(=O)NN(Cc1nc2cc(C(F)(F)F)ccc2s1)C(=O)c1ccc2nc(N)c3cnn(C)c3c2c1 [Example 215, N′-acetyl-4-amino-1-methyl-N-[[5-(trifluoromethyl)-1,3-benzothiazol-2-yl]methyl]pyrazolo[4,3-c]quinoline-8-carbohydrazide] | < 100 nM | < 1 nM | 90 |
| CN(C(=O)c1ncccn1)N(Cc1ccc(C(F)(F)F)cn1)C(=O)c1ccc2nc(N)c3cnn(C)c3c2c1 [Example 163, 4-amino-N′,1-dimethyl-N′-(pyrimidine-2-carbonyl)-N-((5-(trifluoromethyl)pyridin-2-yl)methyl)-1H-pyrazolo[4,3-c]quinoline-8-carbohydrazide] | < 100 nM | 1 to 5 nM | 145 |
| CN(C(=O)C1(C(F)F)CC1)N(Cc1ccc(C(F)(F)F)cn1)C(=O)c1ccc2nc(N)c3cnn(C)c3c2c1 [Example 339, 4-amino-N′-(1-(difluoromethyl)cyclopropane-1-carbonyl)-N′,1-dimethyl-N-((5-(trifluoromethyl)pyridin-2-yl)methyl)-1H-pyrazolo[4,3-c]quinoline-8-carbohydrazide] | 100 to 1000 nM | 1 to 5 nM | 280 |
| CN(C(=O)c1cocn1)N(Cc1ccc(C(F)(F)F)cc1)C(=O)c1ccc2nc(N)c3cnn(C)c3c2c1 [Example 218, N′-(4-amino-1-methyl-1H-pyrazolo[4,3-c]quinoline-8-carbonyl)-N-methyl-N′-(4-(trifluoromethyl)benzyl)oxazole-4-carbohydrazide] | < 100 nM | < 1 nM | 6 |
| Cn1ncc2c(N)nc3ccc(C(=O)N(Cc4ccc(C(F)(F)F)cn4)N4CCCOC4=O)cc3c21 [Example 10, 4-amino-1-methyl-N-(2-oxo-1,3-oxazinan-3-yl)-N-((5-(trifluoromethyl)pyridin-2-yl)methyl)-1H-pyrazolo[4,3-c]quinoline-8-carboxamide] | < 100 nM | < 1 nM | 180 |
| CN(C(=O)C1CCC1)N(Cc1ccc(C(F)(F)F)cn1)C(=O)c1ccc2nc(N)c3cnn(C)c3c2c1 [Example 108, 4-amino-N′-(cyclobutanecarbonyl)-N′,1-dimethyl-N-[[5-(trifluoromethyl)-2-pyridyl]methyl]pyrazolo[4,3-c]quinoline-8-carbohydrazide] | < 100 nM | < 1 nM | 70 |
| Cn1ncc2c(N)nc3cc(F)c(C(=O)N(Cc4ccc(C(F)(F)F)cn4)N4CCCCC4=O)cc3c21 [Example 149, 4-amino-7-fluoro-1-methyl-N-(2-oxopiperidin-1-yl)-N-((5-(trifluoromethyl)pyridin-2-yl)methyl)-1H-pyrazolo[4,3-c]quinoline-8-carboxamide] | < 100 nM | 1 to 5 nM | 18 |
| CN1CCN(N(Cc2ccc(C(F)(F)F)cn2)C(=O)c2cc3c(cc2Cl)nc(N)c2cnn(C)c23)C1=O [Example 84, 4-Amino-7-chloro-1-methyl-N-(3-methyl-2-oxo-imidazolidin-1-yl)-N-[[5-(trifluoromethyl)-2-pyridyl]methyl]pyrazolo[4,3-c]quinoline-8-carboxamide] | < 100 nM | 1 to 5 nM | 26 |
| CC(=O)N(C)N(Cc1nc2cc(Cl)ccc2o1)C(=O)c1ccc2nc(N)c3cnn(C)c3c2c1 [Example 97, N′-acetyl-4-amino-N-((5-chlorobenzo[d]oxazol-2-yl)methyl)-N′,1-dimethyl-1H-pyrazolo[4,3-c]quinoline-8-carbohydrazide] | < 100 nM | 1 to 5 nM | 98 |
| CCN(C(=O)C1CC1)N(Cc1ccc(C(F)(F)F)cn1)C(=O)c1ccc2nc(N)c3cnn(C)c3c2c1 [Example 288, 4-amino-N′-(cyclopropanecarbonyl)-N′-ethyl-1-methyl-N-((5-(trifluoromethyl)pyridin-2-yl)methyl)-1H-pyrazolo[4,3-c]quinoline-8-carbohydrazide] | < 100 nM | < 1 nM | 267 |
| Cn1ncc2c(N)nc3cc(F)c(C(=O)N(Cc4ccc(C(F)(F)F)cn4)NC(=O)C45CC(C4)C5)cc3c21 [Example 333, 4-amino-N′-(bicyclo[1.1.1]pentane-1-carbonyl)-7-fluoro-1-methyl-N-((5-(trifluoromethyl)pyridin-2-yl)methyl)-1H-pyrazolo[4,3-c]quinoline-8-carbohydrazide] | < 100 nM | < 1 nM | 317 |
| Cn1ncc2c(N)nc3cc(F)c(C(=O)N(Cc4ccc(C(F)(F)F)nn4)N4CCCC4=O)cc3c21 [Example 60, 4-amino-7-fluoro-1-methyl-N-(2-oxopyrrolidin-1-yl)-N-((6-(trifluoromethyl)pyridazin-3-yl)methyl)-1H-pyrazolo[4,3-c]quinoline-8-carboxamide] | < 100 nM | 1 to 5 nM | 58 |
| CC(=O)N(C)N(Cc1ccc(-c2cnsc2)cc1F)C(=O)c1ccc2nc(N)c3cnn(C)c3c2c1 [Example 233, N′-acetyl-4-amino-N-(2-fluoro-4-(isothiazol-4-yl)benzyl)-N′,1-dimethyl-1H-pyrazolo[4,3-c]quinoline-8-carbohydrazide] | < 100 nM | < 1 nM | 89 |
| CN(C(=O)[C@H]1C[C@@H]1F)N(Cc1ccc(C(F)(F)F)cn1)C(=O)c1ccc2nc(N)c3cnn(C)c3c2c1 [Example 255, 4-amino-N′-((1R,2S)-2-fluorocyclopropane-1-carbonyl)-N′,1-dimethyl-N-((5-(trifluoromethyl)pyridin-2-yl)methyl)-1H-pyrazolo[4,3-c]quinoline-8-carbohydrazide] | < 100 nM | < 1 nM | 51 |
| CC(=O)N(C)N(Cc1ccc2ncsc2c1)C(=O)c1ccc2nc(N)c3cnn(C)c3c2c1 [Example 196, N′-acetyl-4-amino-N-(1,3-benzothiazol-6-ylmethyl)-N′,1-dimethyl-pyrazolo[4,3-c]quinoline-8-carbohydrazide] | < 100 nM | 1 to 5 nM | 137 |
